pIC50: −log10 of the molar value. Calls of active or inactive are those of the source. No cut-off for these calls is given here.
What was measured:
HL-60 [1] = experiment: Cytotoxicity against human HL60 cells assessed as metabolic activity at 50 ug/mL after 24 hrs by WST-1 assay; format: functional, cell-based
[2] = Chemical stability of the compound in methanol measured immediately post compound addition by LC-MS analysis; format: physicochemical; conditions: read-out: Stability
HeLa [3] = experiment: Cytotoxicity against human HeLa cells after 24 hrs by WST-1 assay; format: functional, cell-based
[4] = Chemical stability of the compound in methanol measured at 24 hrs by LC-MS analysis; format: physicochemical; conditions: read-out: Stability
HL-60 [5] = experiment: Cytotoxicity against human HL60 cells after 24 hrs by WST-1 assay; format: functional, cell-based; conditions: HL-60, 24 h
Vero [6] = experiment: Cytotoxicity against African green monkey Vero cells after 48 hrs by Alamar Blue assay; format: cell-based; conditions: Chlorocebus sabaeus
[7] = Chemical stability of the compound in methanol measured at 48 hrs by LC-MS analysis; format: physicochemical; conditions: read-out: Stability
HL-60 [8] = experiment: Cytotoxicity against human HL60 cells after 48 hrs by WST-1 assay; format: functional, cell-based; conditions: HL-60, 48 h
Vero [9] = experiment: Cytotoxicity against African green monkey Vero cells after 24 hrs by Alamar Blue assay; format: cell-based; conditions: Chlorocebus sabaeus
[10] = Chemical stability of the compound in methanol measured at 72 hrs by LC-MS analysis; format: physicochemical; conditions: read-out: Stability
HL-60 [11] = experiment: Cytotoxicity against human HL60 cells assessed as decrease in cell viability at 50 ug/mL after 24 hrs by trypan blue assay; format: functional, cell-based
HeLa [12] = experiment: Cytotoxicity against human HeLa cells after 48 hrs by WST-1 assay; format: functional, cell-based
HL-60 [13] = experiment: Cytotoxicity against human HL60 cells assessed as decrease in cell viability at 10 ug/mL measured over 72 hrs by trypan blue assay; format: functional, cell-based
[14] = Drug degradation in methanol assessed as divaricatinic acid methyl ester formation after 72 hrs by LC-MS analysis; format: physicochemical
[15] = Drug degradation in methanol assessed as 2,3,4 trihydroxy-6-propylbenzoic acid methyl ester formation after 72 hrs by LC-MS analysis; format: physicochemical
HL-60 [16] = experiment: Cytotoxicity against human HL60 cells assessed as metabolic activity at 10 ug/mL measured over 72 hrs by WST-1 assay; format: functional, cell-based
HL-60 [17] = experiment: Cytotoxicity against human HL60 cells after 72 hrs; format: functional, cell-based; conditions: HL-60, 72 h

Row | SMILES | remaining at 0 h [2] | remaining at 24 h [4] | remaining at 48 h [7] | remaining at 72 h [10] | Stability [14] | Stability [15] | Activity (HL-60 [1]) | pIC50 (HeLa [3]) | pIC50 (HL-60 [5]) | pIC50 (Vero [6]) | pIC50 (HL-60 [8]) | pIC50 (Vero [9]) | Activity (HL-60 [11]) | pIC50 (HeLa [12]) | Activity (HL-60 [13]) | Activity (HL-60 [16]) | pIC50 (HL-60 [17])
1 | COc1cc(C)c2c(c1C=O)Oc1c(c(C)c(O)c3c1C(O)OC3=O)OC2=O (centres undefined) [STICTIC ACID] | 89.7% | 90.1% | 91.8% | 91.8% |  |  | inactive | < 5.00 | < 5.00 | < 3.82 | < 5.00 | < 3.82 | Active | < 5.00 |  |  | 
2 | CCCc1cc(O)cc(O)c1C(=O)OC | 99.8% | 99.9% | 99.9% | 99.9% |  |  |  | < 5.00 | < 5.00 | < 3.82 | < 5.00 | < 3.82 |  | < 5.00 |  |  | 
3 | CCCc1cc(OC)cc(O)c1C(=O)Oc1c(O)cc(CCC)c(C(=O)OC)c1O | 99.8% | 63.8% | 35.3% | 22.1% | Unstable | Unstable |  | < 5.00 | < 5.00 | < 3.82 | 5.12 | < 3.82 |  | < 5.00 | Active | Active | 
4 | CCCc1cc(O)c(O)c(O)c1C(=O)OC | 97.8% | 95% | 94.6% | 94.8% |  |  |  | < 5.00 | < 5.00 | < 3.82 | < 5.00 | < 3.82 |  | < 5.00 |  |  | 

Now from value to compound, other results behind:

Row | remaining at 0 h [2] | remaining at 24 h [4] | remaining at 48 h [7] | remaining at 72 h [10] | Stability [14] | Stability [15] | SMILES | Activity (HL-60 [1]) | pIC50 (HeLa [3]) | pIC50 (HL-60 [5]) | pIC50 (Vero [6]) | pIC50 (HL-60 [8]) | pIC50 (Vero [9]) | Activity (HL-60 [11]) | pIC50 (HeLa [12]) | Activity (HL-60 [13]) | Activity (HL-60 [16]) | pIC50 (HL-60 [17])
5 | 94.1% | 88.5% | 89.6% | 89.5% |  |  | COc1cc(C)c2c(c1C=O)Oc1c(C=O)c(C(=O)O)c(O)c(C)c1OC2=O | inactive | < 5.00 | < 5.00 | < 3.82 | < 5.00 | < 3.82 | Active | < 5.00 |  |  | 
6 | 99.9% | 99.9% | 99.9% | 99.9% |  |  | CC(=O)C1=C(O)C=C2Oc3c(C(C)=O)c(O)c(C)c(O)c3[C@@]2(C)C1=O [(+)-USNIC ACID] |  | < 5.00 | 5.27 | < 3.82 | 5.77 | < 3.82 |  | < 5.00 |  |  | 4.31

Source: ChEMBL document CHEMBL3232872, “Cytotoxic constituents from Lobaria scrobiculata and a comparison of two bioassays for their evaluation” (J Nat Prod, 2014)
